One data set relates to PR-A. It counts as cell-based. The note with it: PR-A efficacy minus PR-B efficacy. The method, then:
The method for screening for PR isoform-specific progestins according to the present invention is carried out with first and second SK-N-MC cells stably transfected with a plasmid expressing the HPR-A (first cells) or the hPR-B (second cells) and the LUC reporter gene linked to the hormonally responsive MTV promoter.
The cells are cultured in Minimum Essential Medium with Earl's Salts (S-MEM, without L-glutamine; Gibco BRL, no. 21090-022), supplemented with 10% fetal calf serum (FCS), penicillin 100U/streptomycin 100 μg/ml (Biochrom, no. A2213), L-glutamine 4 mmol/l (Gibco BRL, no. 25030-024), sodium pyruvate 1 mmol/l (Biochrom, no. L0473) and 1×non-essential amino acids (Biochrom, no. K0293) at a temperature of 37° C. and in an atmosphere of 5% carbon dioxide.
For the transcription assay, the cells are seeded onto 96-well dishes (2×10^4 cells/dish) and cultured in a medium as described above, with the exception that the FCS is replaced by a 3% charcoal stripped FCS. 48 hours later, cells are contacted with prediluted test compounds. For determination of agonistic activity, cells are cultured in the presence of 6 increasing concentrations (10^−6 to 10^−11 mol/l) of test progestins. As a positive control for reporter gene induction cells are treated with 10^−6 to 10^−11 mol/l R5020 (promegestone). As a negative control for reporter gene induction, cells are cultured in 1% ethanol.
After incubation with test progestins for 24 hours, the medium is removed and cells are lysed with 20 μl of lysis buffer (Luciferase Assay System E 153A; Promega) and under agitation of the plate for 101 min. After addition of 30 μl of luciferase reagent (Luciferase Assay System E 151A+152A; Promega) within 30 seconds per plate, the activity of the luciferase reporter gene product is determined in the cell lysates by means of a Microlite ML 3000 microtiter plate luminometer (Dynatech) in cycle mode.
Evaluation of the response gives the efficacy [%], and evaluation of the EC50s values gives the potency [nM]. Calculation of the agonistic activity is conducted as follows:
The LUC activity [%] for the measured data points is calculated as follows:
[formula] wherein CI=100% stimulation (R5020, 10^−7 mol/l) and CO=0% stimulation (ethanol, 1%).
Thus, the efficacy [%] is calculated according to: […]
The potency [nM], i.e. the EC50, is determined graphically.

The next data set relates to rat mammary epithelium. Nature of the data set: MIB-5 immunohistochemistry, proliferation of the mammary epithelium. To be noted: 0.3 mg/kg/d, FIG. 2. The data set is classed as in vivo. The method, then:
In order to determine the effects of test progestins according to the present invention, in particular compound ((+)-1), in mammary gland differentiation and proliferation, premature female rats (Wistar Han, SPF) are ovariectomized at the age of 21 days, 4 to 6 days before treatment start. The animals are treated for 6 days with standard estrogen (estrone (E1), 70 μg/kg) and the test progestin ((+)-1) (application volume: 0.1 ml/50 g body weight; vehicle: benzylbenzoate/castor oil (1+4 v/v); subcutaneous). Control groups are e.g.: vehicle, estrone without progestin, estradiol together with a known progestin, e.g. R5020 (promegestone). After the 6-day treatment the animals are killed with carbon dioxide.
For the whole mount staining, animals are shaved in the left abdominal inguinal mammary region, which is cut from the body together with the skin. For the histological/immunohistochemical analyses the right abdominal inguinal mammary gland is cut from the body together with the connective-tissue adhered thereto and fixed in 3.7% formalin in PBS (phosphate buffer saline; without Ca^2+/Mg^2+).
For a more detailed evaluation of the proliferation of the mammary epithelium, cells are stained with the proliferation marker MIB-5 as follows (cf. FIG. 2): Mammary glands are fixed in 4% formaldehyde/PBS for 24 h and embedded in paraffm. 4 μm sections are spread on slides, deparaffinized, treated with microwaves for 10 min. in citrate buffer pH 6.0 and rinsed with PBS. Slides are then blocked with 3% H2O2/methanol for 15 min., Blockingkit (Vektor, no. SP-2001) for 10 min. and rat serum (Sigma, no. S-7648) diluted 1:2 in PBS for 30 min to reduce nonspecific staining and rinsed in PBS. Slides are incubated for 1 hour with monoclonal antibody MIB-5 (Dianova, no. Dia-5055), which is specific for the rat Ki-67 antigen (1:200 diluted in PBS/0.2% BSA). […]
In order to characterize a test compound, the percentage of MIB-5 stained mammary epithelium cells is determined. […]

Data set [1] relates to pregnancy in ovariectomized rats. Nature of the data set: Pregnancy maintenance test in rat. The data set is classed as in vivo. To be noted: ovariectomized pregnant rats, with estrone. The text has this:
In rats, castration induces termination of pregnancy. Progestins (combined with estrogens) are capable of maintaining pregnancy in castrated animals. However, the degree of pregnancy maintenance in castrated rats is optimal only in a defined dose range. Therefore, higher as well as lower doses generally induce a weaker effect. Accompanying treatment with defined doses of estrone (E1) increases the pregnancy maintaining effect of progestins.
Pregnant rats (Wistar Han, SPF) of 190 to 220 g (5 to 8 animals per dose) are ovariectomized on day 8 of pregnancy, 2 hours after the first substance administration. From day 8 to day 14, rats are daily treated with test progestin in combination with a standard dose of E1. One day later, animals are killed with carbon dioxide. For each animal, the number of living and dead fetuses is determined according to the heartbeat of the embryos. In case of empty uteri, the number of implantation sites is determined by means of staining with a 10% ammonium sulfide solution.
S.c. (subcutaneous) application: The test progestin is dissolved in benzyl benzoate/castor oil (1+4 v/v), and the daily dose is administered in a volume of 1 ml/kg body weight.
P.o. (peroral) application: The test progestin is suspended in a carrier liquid (85 mg Myrj^R in 100 ml 0.9% w/v NaCl solution), and the daily dose is administered in a volume of 2 ml/kg body weight.
I.p. (intraperitoneal) application: The test progestin is dissolved in propylene glycol and charged in miniature osmotic pumps (type 2001, 1.0 μl/h, 7 days), which are placed in the abdominal cavity of the rat.
The standard dose of estrone is 0.005 mg/kg body weight s.c. and is dissolved in benzyl benzoate/castor oil ([…]).
It is determined the pregnancy maintenance per animal [%], the pregnancy maintenance per dose (median of single values) and the EC50 (dose, at which pregnancy is maintained in 50% of the animals; 100% corresponds to control animals that are not ovariectomized). The results of the test are further discussed below in c).

Structures are written as SMILES.

As to `Cc1noc(=O)c2ccc(NC(=O)C(O)(CC3(c4cccc(C(F)(F)F)c4F)CC3)C(F)(F)F)cc12` (single isomer, unassigned; (+)) [((+)-2), (+)-6-{2-hydroxy-3-[1-(2-fluoro-3-trifluoromethylphenyl)-cyclopropyl]-2-trifluoro-methyl-propionylamino}-4-methyl-2,3-benzoxazin-1-one], in the data set with PR-A, the “Δ agonism efficacies (A-B)” value came to 32. Regarding `Cc1noc(=O)c2ccc(NC(=O)C(C)(O)CC3(c4cccc(C(F)(F)F)c4)CC3)cc12` (single isomer, unassigned; (+)) [((+)-3), (+)-6-{2-hydroxy-3-[1-(3-trifluoromethylphenyl)-cyclopropyl]-2-methyl-propionylamino}-4-methyl-2,3-benzoxazin-1-one], in the data set on PR-A, the “Δ agonism efficacies (A-B)” value amounted to 23. On the same count and under the same terms, the same measure for `O=C1OCc2cc(NC(=O)C(O)(CC3(c4cccc(C(F)(F)F)c4F)CC3)C(F)(F)F)ccc21` (single isomer, unassigned; (+)) [((+)-4), (+)-5-{2-hydroxy-3-[1-(2-fluoro-3-trifluoromethylphenyl)-cyclopropyl]-2-trifluoromethyl-propionylamino}-phthalide]: 18. Compound `Cc1noc(=O)c2ccc(NC(=O)C(C)(O)CC3(c4cccc(C(F)(F)F)c4)CC3)cc12` (single isomer, unassigned; (-)) [((−)-3), (−)-6-{2-Hydroxy-3-[1-(3-trifluoromethylphenyl)-cyclopropyl]-2-methyl-propionylamino}-4-methyl-2,3-benzoxazin-1-one] yielded a melting point of 129 to 130 °C. `CCC(=O)[C@@]1(C)CC[C@H]2[C@@H]3CCC4=CC(=O)CCC4=C3CC[C@@]21C` [R5020, promegestone, reference compound]: in the data set with rat mammary epithelium, the MIB-5 positive cells was approximately 42%. Also, the “Maintenance of pregnancy (rat) [EC50]” value in data set [1] was found to be 0.1 mg/kg/day.

Broadly, the melting point is the temperature, or range, at which the solid turns liquid.

The values are drawn from patent US7388006B2, “Non-steroidal progesting” (Bayer Schering Pharma AG, priority 2002, dated 2008).
